This is an account of results in patent US8980904B2, “Heterocyclic substituted pyrimidine compound” (Xuanzhu Pharma Co., Ltd., priority 2011, dated 2015).

The conditions of series [1]: rat, in vivo, 2 mg/kg.
Procedure: (§1) Avanafil as control drug and the compounds of the present invention (self-made) were dissolved with suitable solvents.
Instruments: API4000 LC-MS/MS
(§2) Chromatography column: Agilent XDB C18 (2.1×50 mm, 5 μm)
(§3) Blood sampling in rats: animals were fixed, tails were heated with water-bath at 10 min before each time point, about 100 μl of blood was collected via caudal vein, and the collected blood samples were placed in heparin sodium-containing anticoagulation tubes. The blood samples were centrifuged at 4° C. and 8,000 rpm for 6 min to obtain blood plasma samples, in which the blood plasma samples should be prepared with 30 min after blood sampling. The blood plasmas were stored in refrigerator with −80° C.
(§4) (1) Samples to be tested were taken out from refrigerator (−80° C.), melt at room temperature, then subjected to volution for 5 min;
(§5) (2) 20 μl of sample was precisely moved to 1.5 ml centrifuge tube;
(§6) (3) 200 μl of internal standard solution was added;
(§7) (4) After 5 min of volution, 5 min of centrifugation (12,000 rpm) was carried out;
(§8) (5) 100 μl of supernatant was precisely taken, 100 μl of water was added, subjected to volution for 5 min, and analyzed by LC-MS/MS.
(§9) Concentrations of samples to be tested (blood plasma samples) were the output results of Analyst 1.5.1 of AB SCIEX (Shanghai Aibocaisi Analytical Instruments Trading Co., Ltd.). Mean values, standard deviations and parameters such as variable coefficients were calculated by Microsoft Excel (when parameters were directly given by Analyst 1.5.1, they were not calculated). PK parameters were calculated using Pharsight Phoenix 6.1 software.
A further series has as its target PDE-5A (Homo sapiens (Human), UniProt O76074). Nature of the series: Caliper Mobility-Shift PDE-5A Assay. Type of series: biochemical. The following applies: test compound; read-out: IC50 values for PDE-5A, PDE-5A. How it is done:
Caliper Mobility-Shift PDE-5A Assay:
A sample to be tested is precisely weighed, dissolved by adding DMSO, mixed sufficiently to form 10 mM solution.
The maximum final concentration of the compound was 10 μM. After incubation at 30° C. for 1 h, 20 μl of 70 μM EDTA was added to terminate reaction. Substrate and products were separated and analyzed by electrophoresis. Conversion rate was calculated by Caliper's Reviewer software, and inhibition rate was calculated by the following formulation, and IC50 was calculated from inhibition rate using Prism 5.0. Inhibition rate=[conversion rate (ZPE)−conversion rate (sample)]×100/[conversion rate (ZPE)−conversion rate (HPE)]
Notation: HPE: blank control without adding enzyme; ZPE: blank control without adding compound.

A further series can be described thus: in vivo. To be noted: Sprague-Dawley (SD), rat, iv, 1 mg/kg.

SMILES strings stand for the structures.

Procedure for in vivo: as §1
Instruments: API4000 LC-MS/MS
as §2, §3, §4, §5, §6, §7, §8, §9

Turning to `COc1ccc(COc2nc(N3C4CCC3COC4)ncc2C(=O)NCc2ccccc2)cc1Cl` [Compound 2, N-benzyl-2-(3-oxa-8-azadicyclo[3.2.1]octan-8-yl)-4-(3-chloro-4-methoxybenzyloxy)pyrimidine-5-carboxamide], the “t1/2 (h) PO” value in series [1] is reported as “No”. On PDE-5A, the half-maximal inhibitory concentration (IC50) (as a rule, the point on the concentration scale where inhibition reaches its midpoint) came to 4.01 nM. Further, in “in vivo”, the half-life (usually how long it takes for the measured level to halve) was 1.51 h.
